Several values for one entry are separate records, joined by “and”; a condition that tells them apart may be missing. Equal entries are not always repeated.
Legend:
human mononuclear cells [1] = test: GM-CSF production by the human mononuclear cells; type: cell-based; conditions: for GM-CSF production by the human mononuclear cells: donors 1-7 and mean M±; for GM-CSF synthesis, in words: versus random synthesis (control), statistically significant
Protocol: PL-3 was added in concentrations of 100 μg/ml, 10 μg/ml, 1 μg/ml, and feeding media was added to the control wells. Cytokine content was defined by IFA with commercial kit […] (Cytimmune, USA). The effect of PL-3 on the synthesis of GM-CSF was evaluated accordingly to the previous method.

human mononuclear cells [2] = test: Cell longevity of mononuclear leukocytes, propidium iodide flow cytometry; type: cell-based; conditions: for cell longivity (percentage of dead cells): time not given (twofold reduction after 72 hours), donors 1-3 and mean M; for cell longevity: after 24 hours treatment; for cell longevity, protective effect: after 48 hours of incubation; for percentage of dead cells: after 72 hours of the incubation
monocytes = test: Active oxygen forms by monocytes, cytofluorometry; type: cell-based, human; parameters: formation of active oxygen forms by monocytes: unit not given here; conditions: for formation of active oxygen forms by monocytes: single donors and mean M
Protocol: (§1) This effect was evaluated by luminal dependent chemoluminiscence and cytofluorometry. In the second case the leukocytes were added to dichlorofluoroscein […]). This substance is originally non fluorescence one. However, after the penetration into the cells it is turned into green fluorochrom in the presence of the hydrogen peroxide. The reaction was monitored in the flow cytometer FACSCalibur.

neutrophils = test: Active oxygen forms by neutrophils, cytofluorometry; type: cell-based, human; conditions: versus control data (p=0.08)
Protocol: as §1

[3] = tested on: leukocytes of the healthy donors; test: Active oxygen forms by leukocytes, luminol dependent chemoluminiscence; type: cell-based, human
Protocol: This effect was evaluated by luminal dependent chemoluminiscence and cytofluorometry. In the first case leukocytes were separated by gelatin and connected with luminal, human serum and added to the vials with the different concentration of the substance.

[4] = tested on: human mononuclear blood cells; test: TNF alpha production by human mononuclear blood cells; type: cell-based; conditions: for TNF alpha synthesis by mononuclear cells, in words: versus control samples
Protocol: PL-3 was added in concentrations of 100 μg/ml, 10 μg/ml, 1 μg/ml, and feeding media was added to the control wells. Cytokine content was defined by IFA with commercial kit […] (Cytimmune, USA).

target cells K-562 = test: Natural killer cell cytotoxicity on 3H-uridine labeled target cells; type: cell-based, human; conditions: for function of natural killer cells, Cytotoxicity (%): 3 hours incubation, K-562 targets, donors 1-7 and mean M
Protocol: Cells were separated after 3 hours of the incubation at 37° C. in CO2 incubator. Their cytotoxic action on the target cells K-562 labeled with ^3H-uridine was evaluated.

[5] = Hypersensitivity of the delayed type

In the case of `CC(=O)N[C@H]1[C@H](O[C@H]2[C@H](O[C@H](C)C(=O)N[C@@H](C)C(=O)N[C@H](CCC(=O)O)C(N)=O)[C@@H](NC(C)=O)C(O)O[C@@H]2CO)O[C@H](CO)[C@@H](O)[C@@H]1O` (some centres unmarked) [GMDP, reference compound], the “GM-CSF production by the human mononuclear cells” value (shortened to “GM-CSF production”) (human mononuclear cells [1]; 100 mkg/ml) is reported as 983 and 584 and 609 and 944 and 581 and 735 and 773, the “GM-CSF synthesis, in words” value (human mononuclear cells [1]) is reported as “strong inductors” and the “cell longivity (percentage of dead cells)” value (human mononuclear cells [2]; 1 μg/ml) is reported as 16 and 17 and 18. For the same compound, the “cell longivity (percentage of dead cells)” value (human mononuclear cells [2]; 10 μg/ml) was 17 and 23 and 21, the “cell longivity (percentage of dead cells)” value (human mononuclear cells [2]; 100 μg/ml) was 15 and 18 and 24 and the cell longevity (human mononuclear cells [2]) was “unchanged”. For the same compound, the “cell longevity, protective effect” value (human mononuclear cells [2]) was “weak protective effect”, the “percentage of dead cells” value (human mononuclear cells [2]) was “twofold reduction” and the “generation of active oxygen forms by monocytes, in words” value (monocytes) was “do not generate the active oxygen forms”. For the same compound, the “formation of active oxygen forms by monocytes” value (“formation” for short) (monocytes; concentration 1.0 (unit not given)) was 27 and 16 (2×) and 23 and 54 and 15 and 12 and 18 and 14, the “formation” value (monocytes; concentration 10.0 (unit not given)) was 25 and 14 (2×) and 11 and 16 and 70 and 19 and 15 and 26 and the “formation” value (monocytes; concentration 100.0 (unit not given)) was 14 and 15 and 12 and 16 (2×) and 34 (2×) and 102 and 19.5. The “active oxygen forms, cytofluometric analysis, in words” value (neutrophils) was “does not posses this activity”, the “ability of leukocytes to generate the active oxygen forms (chemoluminiscence), in words” value [3] was “did not change” and the “TNF alpha synthesis by mononuclear cells, in words” value [4] was “does not lead to the induction”. For the same compound, the “function of natural killer cells, Cytotoxicity (%)” value (“function … (%)” below) (target cells K-562; 1 μg/ml) was 51% and 49% and 38% and 44% and 50% and 47%, the “function … (%)” value (target cells K-562; 10 μg/ml) was 34% and 48% and 45% and 40% and 53% and 47% and the “function … (%)” value (target cells K-562; 100 μg/ml) was 33% and 48% and 46% and 44% and 50%.

With `CC(=O)NC1C(OC2C(CO)OC(O)C(NC(C)=O)C2OC(C)C(=O)NC(C)C(=O)NC(CCC(=O)NC(CCCC(N)C(=O)O)C(=O)NC(C)C(=O)O)C(N)=O)OC(CO)C(O)C1O` [PL-3, N-acetyl-glucosamine-N-acetyl-muramyl-L-alanine-D-isoglutamine-diaminopimenic acid-D-alanine] the “GM-CSF synthesis relative to GMDP” value (human mononuclear cells [1]; 10 mkg/ml and 100 mkg/ml, p=0.029 and 0.038) was “almost two times more”, the “GM-CSF production” value (human mononuclear cells [1]; 10 mkg/ml) was 1109 and 752 and 740 and 1115 and 920 and 1052 and the “GM-CSF production” value (human mononuclear cells [1]; 10 mkg/ml, mean) was 975 ± 282.5. The “GM-CSF synthesis, in words” value (human mononuclear cells [1]) was “strong inductors”, the “cell longivity (percentage of dead cells)” value (human mononuclear cells [2]; 1 μg/ml) was 16 and 18 and the “cell longivity (percentage of dead cells)” value (human mononuclear cells [2]; 10 μg/ml) was 16 and 21 and 17. For the same compound, the “cell longivity (percentage of dead cells)” value (human mononuclear cells [2]; 10 μg/ml, mean) was 18, the “cell longivity (percentage of dead cells)” value (human mononuclear cells [2]; 100 μg/ml) was 19 and 16 and the “cell longivity (percentage of dead cells)” value (human mononuclear cells [2]; 100 μg/ml, mean) was 18. For the same compound, the cell longevity (human mononuclear cells [2]) was “unchanged”, the “cell longevity, protective effect” value (human mononuclear cells [2]) was “weak protective effect” and the “percentage of dead cells” value (human mononuclear cells [2]) was “twofold reduction”. The “generation of active oxygen forms by monocytes, in words” value (monocytes) was “do not generate the active oxygen forms”, the “formation” value (monocytes; concentration 1.0 (unit not given), listed as GMTP) was 31 and 15 and 29 and 50 and 25 (2×) and 18 (2×) and 16 and the “formation” value (monocytes; concentration 1.0 (unit not given), listed as GMTP, mean) was 25.2. The “formation” value (monocytes; concentration 10.0 (unit not given), listed as GMTP) was 29 and 14 (2×) and 18 (2×) and 13 and 32 and 17 and 15, the “formation” value (monocytes; concentration 10.0 (unit not given), listed as GMTP, mean) was 18.9 and the “formation” value (monocytes; concentration 100.0 (unit not given), listed as GMTP) was 22 and 18 and 13 and 25 and 20 and 42 and 0.6 and 26 and 31. The “formation” value (monocytes; concentration 100.0 (unit not given), listed as GMTP, mean) was 23.8, the “hypersensitivity of the delayed type” value [5] was “absence of its effect” and the “active oxygen forms, cytofluometric analysis, in words” value (neutrophils) was “stimulated the active oxygen forms”. The interferon-γ (interferon-γ) was “does not affect”, the “ability of leukocytes to generate the active oxygen forms (chemoluminiscence), in words” value [3] was “did not change” and the “TNF alpha production in comparison with GMDP” value [4] was “enhanced two fold”. For the same compound, the “TNF alpha synthesis by mononuclear cells, in words” value [4] was “significant increase”, the “function … (%)” value (target cells K-562; 1 μg/ml, listed as GMTP) was 45% and 56% and 41% and 37% and 55% and 63% and 48% and the “function … (%)” value (target cells K-562; 1 μg/ml, listed as GMTP, mean) was 49.2%. The “function … (%)” value (target cells K-562; 10 μg/ml, listed as GMTP) was 55% and 38% and 44% and 43% and 53% and 65% and 57%, the “function … (%)” value (target cells K-562; 10 μg/ml, listed as GMTP, mean) was 50.7% and the “cytotoxic activity of the natural killer cells, in words” value (target cells K-562; 100 μg/ml) was “increase the cytotoxic activity”. The “function … (%)” value (target cells K-562; 100 μg/ml, listed as GMTP) was 56% and 55% and 49% and 51% and 66% and 54% and the “function … (%)” value (target cells K-562; 100 μg/ml, listed as GMTP, mean) was 54.2%.
